Test results: ChEMBL document CHEMBL1201862, “PubChem BioAssay data set” (2004)
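How tested: cells in 96-well plates exposed to compound for 48 hours at five concentrations. GI50: concentration for 50% inhibition of growth.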 Activity calls are given as the source filed them. Cut-off read from the data, not from the text of the source: active = GI50 up to about 1.1 µM and inactive = higher.

What was measured:
Experiment in all cases: NCI anticancer screen, dose series, 48 h
[1] = system: A549
[2] = system: MOLT-4
[3] = system: HT-29
[4] = system: OVCAR-8
[5] = system: NCI-H23
[6] = system: HCT-116
[7] = system: HL-60
[8] = system: IGROV-1
[9] = system: SF-268
[10] = system: NCI-H460
[11] = system: SK-MEL-28
[12] = system: EKVX
[13] = system: SK-OV-3
[14] = system: UO-31
[15] = system: HCT-15
[16] = system: ACHN
[17] = system: HOP-92
[18] = system: TK-10
[19] = system: UACC-62
[20] = system: BT-549

| Structure (SMILES) | GI50 [1] | GI50 [2] | GI50 [3] | GI50 [4] | GI50 [5] | GI50 [6] | GI50 [7] | GI50 [8] | GI50 [9] | GI50 [10] | GI50 [11] | GI50 [12] | GI50 [13] | GI50 [14] | GI50 [15] [µM] | GI50 [16] | GI50 [17] | GI50 [18] | GI50 [19] | GI50 [20] |
| --- | --- | --- | --- | --- | --- | --- | --- | --- | --- | --- | --- | --- | --- | --- | --- | --- | --- | --- | --- | --- |
| COc1ccc(-c2c(N)[n+]([O-])c3ccccc3[n+]2[O-])cc1OC | > 100 µM (inactive) | > 100 µM (inactive) | > 100 µM (inactive) | > 100 µM (inactive) | > 100 µM (inactive) | > 100 µM (inactive) | > 100 µM (inactive) | > 100 µM (inactive) | > 100 µM (inactive) | > 100 µM (inactive) | > 100 µM (inactive) | > 100 µM (inactive) | > 100 µM (inactive) | > 100 µM (inactive) | > 100 | > 100 µM (inactive) | > 100 µM (inactive) |  |  |  |
| C=C1C(=O)OC2CC3(C)C=CC(=O)C(=C)C3CC12 (stereo not given) | 5.62 µM (inactive) | 1.03 µM (active) | 1.65 µM (inactive) | 1.55 µM (inactive) | 1.69 µM (inactive) | 1.28 µM (inactive) | 0.769 µM (active) | 2.28 µM (inactive) | 2.59 µM (inactive) | 2.59 µM (inactive) | 1.77 µM (inactive) | 2.77 µM (inactive) | 20.8 µM (inactive) | 1.75 µM (inactive) | 1.71 | 1.72 µM (inactive) | 1.91 µM (inactive) | 2.15 µM (inactive) | 1.5 µM (inactive) |  |
| Oc1ccc2c(O)cc(-c3ccccc3)nc2c1 | 23.1 µM (inactive) | 21.1 µM (inactive) | 23.3 µM (inactive) | 32.7 µM (inactive) | 36.4 µM (inactive) | 17.4 µM (inactive) | 21.5 µM (inactive) | 29 µM (inactive) | 32.4 µM (inactive) | 17.8 µM (inactive) | 38.3 µM (inactive) | 35.9 µM (inactive) | 28.4 µM (inactive) | 19.3 µM (inactive) | 15.8 | 21.4 µM (inactive) | 29.3 µM (inactive) | 40.7 µM (inactive) | 19.9 µM (inactive) |  |
| C[C@]12CC[C@H]3[C@@H](CCC4=C/C(=N/OCCN5CCCCC5)CC[C@@]43C)[C@@H]1CC[C@@H]2O | 14.4 µM (inactive) | 5.81 µM (inactive) | 1.37 µM (inactive) | 24.1 µM (inactive) | 13.7 µM (inactive) | 19.3 µM (inactive) | 2.99 µM (inactive) | 27.4 µM (inactive) |  |  | 13.6 µM (inactive) | 27.3 µM (inactive) | 15.2 µM (inactive) | 12.2 µM (inactive) | 8.04 | 20.7 µM (inactive) |  | 14.3 µM (inactive) | > 10 µM (inactive) | 15.4 µM (inactive) |
| O=C1NI(C#Cc2ccccc2)c2ccccc21 | 59 µM (inactive) | 65.3 µM (inactive) | > 100 µM (inactive) | > 100 µM (inactive) | > 100 µM (inactive) | > 100 µM (inactive) | > 100 µM (inactive) | > 100 µM (inactive) | > 100 µM (inactive) | > 100 µM (inactive) | > 100 µM (inactive) |  | 1.32 µM (inactive) | > 100 µM (inactive) | > 100 |  |  | > 100 µM (inactive) | > 100 µM (inactive) | > 100 µM (inactive) |
| CN/N=C(\C(=O)Nc1ccc([N+](=O)[O-])cc1[N+](=O)[O-])C1NC(=O)NC1=O (stereo not given) | > 100 µM (inactive) | > 100 µM (inactive) | 80.5 µM (inactive) | > 100 µM (inactive) | > 100 µM (inactive) | > 100 µM (inactive) | > 100 µM (inactive) | > 100 µM (inactive) | > 100 µM (inactive) | > 100 µM (inactive) | > 100 µM (inactive) | > 100 µM (inactive) | > 100 µM (inactive) | > 100 µM (inactive) | > 100 | > 100 µM (inactive) | > 100 µM (inactive) | > 100 µM (inactive) | > 100 µM (inactive) |  |
| CCCCCCCCCCCCCCCCCC(=O)OCC(COC1OC(COP(=O)(O)O)C(O)C(O)C1O)OC(=O)CCCCCCCCCCCCCCCCC (stereo not given) | 7.46 µM (inactive) | 7.5 µM (inactive) | 5.32 µM (inactive) | 7.35 µM (inactive) | 7.78 µM (inactive) | 8.83 µM (inactive) | 12.4 µM (inactive) | 4.02 µM (inactive) | 8.97 µM (inactive) | 11.7 µM (inactive) | 9.98 µM (inactive) | 7.74 µM (inactive) | 8 µM (inactive) |  | 7.52 | 6.41 µM (inactive) | 4.14 µM (inactive) | 10.4 µM (inactive) | 8.57 µM (inactive) |  |
| Cc1ccc(S(=O)OC2C3CC4CC(C3)CC2C4)cc1 (stereo not given) | > 100 µM (inactive) | > 100 µM (inactive) | > 100 µM (inactive) | > 100 µM (inactive) | > 100 µM (inactive) | > 100 µM (inactive) | > 100 µM (inactive) | > 100 µM (inactive) | > 100 µM (inactive) | > 100 µM (inactive) | > 100 µM (inactive) | > 100 µM (inactive) | > 100 µM (inactive) | > 100 µM (inactive) | > 100 | > 100 µM (inactive) | > 100 µM (inactive) | > 100 µM (inactive) | > 100 µM (inactive) |  |
